Patent US20260317356A1, “SMALL MOLECULE MODULATORS OF OGG1” (AZKARRA THERAPEUTICS, INC., priority 2023, published 2026)
pKd: −log10 of the molar value.

Molecular target: hOGG1 (Homo sapiens, UniProt O15527)
Assay: Surface Plasma Resonance with hOGG1 to measure compound affinity (OGG1 SPR Kd)
Assay type: binding
Design: Protein His-hOGG1 (12-323) was prepared
Conditions: Biacore T-200, immobilized his-tagged OGG1; pH 7.4; 2% DMSO; single-cycle kinetics
Procedure: Surface Plasma Resonance with hOGG1 to Measure Compound Affinity (OGG1 SPR Kd); All the SPR studies were performed on a Biacore T-200 instrument (Cytiva life sciences) using series S NTA sensor chip (cat #BR-1005-32, Cytiva life sciences). Recombinant his-tagged OGG1 (mol. wt. 36003; ChemPartner, Shanghai, China) was immobilized on NTA sensor chip via Ni^2+/NTA chelation using NTA reagent kit (Cytiva life sciences; cat #289950) as per manufacturer's recommended protocol. The running buffer during immobilization contained HEPES (20 mM, pH 7.4), 150 mM NaCl, 0.5 mM TCEP (tris(2-carboxyethyl)phosphine), and 0.005% Tween-20. NTA sensor chip (experimental cell) was first conditioned by injecting regeneration solution (350 mM EDTA, flow rate 30 μL/min, 2 injections 60 each). Additional wash with 50 mM NaOH was used whenever the chip was regenerated (flow rate 30 μL/min, 1 injection of 60 s). The sensor chip was then activated with 0.5 mM NiCl2 (flow rate 10 μL/min, 2 injection of 60 s, leading to a baseline increase of ~40 RU), and the excess Ni^2+ was removed using immobilization buffer containing 3 mM EDTA (flow rate 10 μL/min, 1 injection of 60 s). Finally, OGG1 (diluted to 6.2 μg/mL in running buffer) was injected on the activated sensor chip at a flow rate of 10 μL/min until immobilization level reached ~6000 RU. Any loosely bound protein was removed by passing the immobilization buffer overnight at 20 μL/min. At this point, the drift in baseline was ~0.01 RU/s and the final immobilization level was ~2500 RU. Reference cell was left untreated. SPR binding experiments were performed using binding buffer (20 mM HEPES (pH 7.4), 150 mM NaCl, 0.5 mM TCEP, 0.005% Tween-20, and 2% DMSO) at a flow rate of 30 μL/min. Single-cycle kinetics approach was used for binding analysis which consisted of sequential injections of increasing concentrations of test compound (a 3-fold serial dilution with 5 concentrations; highest 750 or 1500 nM; with final DMSO concentration at 2%) over the immobilized protein without regeneration step between each sample injection. Each injection was 45 seconds long (contact time), followed by a final dissociation of 600 sec. The Biacore T-200 Evaluation software 3.1 (GE Healthcare) was used to determine kinetic parameters from SPR data. All the reported sensograms were reference subtracted and corrected for refractive index contributions from solvent using 8-point solvent correction (1.4 to 2.8% DMSO in binding buffer). Data were fit to both steady state and 1:1 kinetic model to obtain Kon, Koff and binding affinity (Kd).

hOGG1, sequence (O15527 12-323): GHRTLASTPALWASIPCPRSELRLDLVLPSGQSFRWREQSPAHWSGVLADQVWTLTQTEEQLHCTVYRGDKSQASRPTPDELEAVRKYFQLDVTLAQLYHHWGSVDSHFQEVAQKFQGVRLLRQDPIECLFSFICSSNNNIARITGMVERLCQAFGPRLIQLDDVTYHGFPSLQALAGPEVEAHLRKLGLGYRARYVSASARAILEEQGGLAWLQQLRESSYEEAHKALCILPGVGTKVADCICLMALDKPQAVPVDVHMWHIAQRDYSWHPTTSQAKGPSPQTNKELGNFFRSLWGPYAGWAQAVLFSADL

SMILES	pKd
COc1ccc(NC(=O)[C@H]2CC[C@@H](N3Cc4c(C)ccc(OC)c4NC3=O)CC2)cc1C#N [Example 2, (1s,4s)-N-(3-Cyano-4-methoxyphenyl)-4-(8-methoxy-5-methyl-2-oxo-1,2-dihydroquinazolin-3(4H)-yl)cyclohexanecarboxamide]	7.00 to 8.00
COc1cc(NC(=O)[C@H]2CC[C@@H](N3Cc4ccccc4NC3=O)CC2)ccc1C [Example 67, (1s,4s)-N-(3-methoxy-4-methylphenyl)-4-(2-oxo-1,2-dihydroquinazolin-3(4H)-yl)cyclohexanecarboxamide]	7.00 to 8.00
COc1ccc(NC(=O)[C@]2(C)CC[C@H](N3Cc4c(C)ccc(OC)c4NC3=O)CC2)cc1C (single isomer, unassigned) [Example 11, (1s,4s)-N-(3-methyl-4-methoxyphenyl)-4-(8-methoxy-5-methyl-2-oxo-1,2-dihydroquinazolin-3(4H)-yl)-1-methylcyclohexanecarboxamide]	≥ 8.00
COc1cc(NC(=O)[C@H]2CC[C@@H](N3Cc4c(C)ccc(OC5CNC5)c4NC3=O)CC2)ccc1C [Example 45]	7.00 to 8.00
COc1ccc(NC(=O)[C@H]2CC[C@@H](N3Cc4c(C)cc(NCCN(C)C)cc4C3=O)CC2)cc1C#N [Example 259, (1s,4s)-N-(3-Cyano-4-methoxyphenyl)-4-(6-(2-(dimethylamino)ethylamino)-4-methyl-1-oxoisoindolin-2-yl)cyclohexanecarboxamide]	7.00 to 8.00
COc1cc(NC(=O)[C@H]2CC[C@@H](N3Cc4c(C)cc(N(C)C)cc4C3=O)CC2)ccc1C [Example 135, (1s,4s)-4-(6-(Dimethylamino)-4-methyl-1-oxoisoindolin-2-yl)-N-(3-methoxy-4-methylphenyl)cyclohexane-1-carboxamide]	7.00 to 8.00
COc1cc(NC(=O)[C@H]2CC[C@@H](N3Cc4c(C)ccc(CNC(C)=O)c4NC3=O)CC2)ccc1C [Example 17, (1s,4s)-4-(8-(Acetamidomethyl)-5-methyl-2-oxo-1,2-dihydroquinazolin-3(4H)-yl)-N-(3-methoxy-4-methylphenyl)cyclohexanecarboxamide]	≥ 8.00
COc1cc(NC(=O)[C@H]2CC[C@@H](N3Cc4c(C)ccc(OCC5CNC5)c4NC3=O)CC2)ccc1C [Example 44, (1s,4s)-4-(8-(Azetidin-3-ylmethoxy)-5-methyl-2-oxo-1,2-dihydroquinazolin-3(4H)-yl)-N-(3-methoxy-4-methylphenyl)cyclohexanecarboxamide]	7.00 to 8.00

The remaining lines, values ahead:

pKd	SMILES
≥ 8.00	COc1ccc(NC(=O)[C@H]2CC[C@@H](N3Cc4c(C)ccnc4NC3=O)CC2)cc1C [Example 16, (1s,4s)-N-(4-Methoxy-3-methylphenyl)-4-(5-methyl-2-oxo-1,2-dihydropyrido[2,3-d]pyrimidin-3(4H)-yl)cyclohexanecarboxamide]
7.00 to 8.00	COc1ccc(NC(=O)[C@H]2CC[C@@H](N3Cc4c(C)ccc(OC)c4NC3=O)CC2)cc1C [Example 4, (1s,4s)-N-(3-Methyl-4-methoxyphenyl)-4-(8-methoxy-5-methyl-2-oxo-1,2-dihydroquinazolin-3(4H)-yl)cyclohexanecarboxamide]
7.00 to 8.00	COc1ccc(NC(=O)[C@H]2CC[C@@H](N3Cc4c(C)ccc(OC)c4NC3=O)CC2)cc1Cl [Example 3, (1s,4s)-N-(3-Chloro-4-methoxyphenyl)-4-(8-methoxy-5-methyl-2-oxo-1,2-dihydroquinazolin-3(4H)-yl)cyclohexanecarboxamide]
7.00 to 8.00	COc1ccc(NC(=O)[C@H]2CC[C@@H](N3Cc4c(C)ccnc4NC3=O)CC2)cc1Cl [Example 14, (1s,4s)-N-(3-Chloro-4-methoxyphenyl)-4-(5-methyl-2-oxo-1,2-dihydropyrido[2,3-d]pyrimidin-3(4H)-yl)cyclohexanecarboxamide]
